This is an account of results in the supplement of paper PMC10307832.

Common to all, as to assay: relative viability (nuclei count vs DMSO), 5 days (fraction); higher = more cells survive
Compound in test [1]: CCCS(=O)(=O)Nc1ccc(F)c(C(=O)c2c[nH]c3ncc(-c4ccc(Cl)cc4)cc23)c1F [Vemurafenib] + Cc1cc(Nc2cc(N3CCN(C)CC3)nc(Sc3ccc(NC(=O)C4CC4)cc3)n2)n[nH]1 [Tozasertib] (partner 0.1 µM)
In a few lines:
(§1)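 A single step with final 0.05% Triton X-100, 1% formaldehyde and 1 ug/ml Hoechst fixed the cells and stained nuclei 5 days after treatment. Lung cancer cell lines in 1536-well plates had been treated by pin tool the day after seeding with one drug alone or a fixed anchor-drug dose plus five library-drug doses (not always all listed) in √10 steps, and nuclei were counted on 4× images. Relative viability is the ratio of nuclei in treated wells to nuclei in vehicle wells, taken as the median of duplicate plates.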

Compound in test [2]: Cc1nc(NC(=O)N2CCC[C@H]2C(N)=O)sc1-c1ccnc(C(C)(C)C(F)(F)F)c1 [Alpelisib] + C[C@@H](Oc1cc(-c2cnn(C3CCNCC3)c2)cnc1N)c1c(Cl)ccc(F)c1Cl [Crizotinib] (partner 1 µM)
In a few lines:
as §1

Compound in test [3]: Cc1nc(NC(=O)N2CCC[C@H]2C(N)=O)sc1-c1ccnc(C(C)(C)C(F)(F)F)c1 [Alpelisib] + CC1(C)CCC(c2ccc(Cl)cc2)=C(CN2CCN(c3ccc(C(=O)NS(=O)(=O)c4ccc(N[C@H](CCN5CCOCC5)CSc5ccccc5)c(S(=O)(=O)C(F)(F)F)c4)cc3)CC2)C1 [Navitoclax] (partner 0.5 µM)
In a few lines: as §1

Compound in test [4]: Cc1nc(NC(=O)N2CCC[C@H]2C(N)=O)sc1-c1ccnc(C(C)(C)C(F)(F)F)c1 [Alpelisib] + Nc1nc2[nH]cc(CCc3ccc(C(=O)N[C@@H](CCC(=O)O)C(=O)O)cc3)c2c(=O)[nH]1 [Pemetrexed] (partner 0.2 µM)
The procedure, abridged: as §1

On to UMC-11, for which the relative viability was determined as 0.217 in test [1] (first compound 0.03162 µM); 0.216 in test [1] (first compound 0.1 µM); 0.199 in test [1] (first compound 0.3162 µM); 0.212 in test [1] (first compound 1 µM); 0.589 in test [2] (first compound 0.04 µM); 0.516 in test [2] (first compound 0.1265 µM). In addition, the relative viability is 0.724 in test [2] (first compound 0.4 µM); 0.688 in test [2] (first compound 1.265 µM); 0.536 in test [2] (first compound 4 µM); 0.319 in test [3] (first compound 0.04 µM); 0.341 in test [3] (first compound 0.1265 µM); 0.336 in test [3] (first compound 0.4 µM). Besides, the relative viability was found to be 0.325 in test [3] (first compound 1.265 µM); 0.273 in test [3] (first compound 4 µM); 0.732 in test [4] (first compound 0.04 µM); 0.709 in test [4] (first compound 0.1265 µM); 0.844 in test [4] (first compound 0.4 µM); 0.699 in test [4] (first compound 1.265 µM). The relative viability in test [4] (first compound 4 µM) came to 0.692.
